Results from patent publication US12240854B2, “TRAF 6 inhibitors” (Helmholtz Zentrum München - Deutsches Forschungszentrum für …, priority 2018, dated 2025).
“Also recorded” adds a separate entry of the source. Like-named read-outs stand apart in the source and are kept apart here.

Experiments:
[1] = molecular target: T1, TRAF6WTStrepII-Ubc13FH interaction (Homo sapiens, UniProt Q9Y4K3); assay: ALPHAScreen TRAF6-Ubc13 interaction assay; assay type: binding; conditions: for IC50: TRAF6 100 nM, Ubc13FH 75 nM, class symbols, read-out: IC50 Alphascreen (inhibition of TRAF6-UBC13 interaction)
T1 construct: RING-Zincfinger1 (RZ1) domain (residues 50-159) of human TRAF6 wildtype; made in house; host or cells: E. coli BL21 codon plus RIPL
T1 sequence (Q9Y4K3 with tags, fused parts or gaps): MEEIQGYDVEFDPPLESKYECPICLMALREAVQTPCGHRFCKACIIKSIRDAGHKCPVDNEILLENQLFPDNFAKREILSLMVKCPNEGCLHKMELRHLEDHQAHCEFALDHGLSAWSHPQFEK
Source text: In order to identify small molecules that specifically target the RZ1 domain of TRAF6 and thereby prevent its binding to Ubc13, the ALPHAScreen technology (PerkinElmer) was chosen to detect TRAF6WTStrepII-Ubc13FH interaction in High-Throughput-Screenings as well as Structure Activity Relationship (SAR) analysis.
For performance of an automated ALPHAScreen assay, all following components were pre-diluted in ALPHAScreen buffer (1×PBS, 0.5% BSA, 0.01% Tween-20). First, the TRAF6 protein (end concentration 100 nM, 30 μL volume) was added to 384-well-opti-plates involving the MultiFlo dispensing system (BioTek) followed by transfer of the compounds via the Sciclone G3 transfer station (PerkinElmer). After addition of Ubc13FH (end concentration 75 nM, 10 μL volume) with the MultiFlo system and incubation for one hour at room temperature, both beads (Strep-Tactin Alpha Donor beads and Nickel-Chelate acceptor beads; end concentrations 4 μg each, 10 μL volume each) were mixed and added using the MultiFlo system in subdued light. Read-out of the plates occurred after another hour of incubation at room temperature. Statistical parameters including the coefficient of variation, Z′ factor and signal window were calculated to determine the quality of the HTS campaign. To evaluate the efficacy of the compounds, ALPHAScreen units of compound-treated samples were referred to DMSO control treated samples. Thereby, the TRAF6D57K mutant served as the control for minimum signal and was included on every plate of the screening. Compounds that inhibited TRAF6WTStrepII-Ubc13FH by more than 25% were considered as actives. After elimination of ALPHAScreen frequent hitter compounds and His-tag frequent hitters (Schorpp, K., I. Rothenaigner, E. Salmina, et al., Identification of Small-Molecule Frequent Hitters from AlphaScreen High-Throughput Screens. J Biomol Screen, 2014. 19(5): p. 715-26), 178 compounds were defined as primary hits and were subsequently tested in five-point serial dilution assays (2.5-40 μM) in TRAF6WTStrepII-Ubc13FH ALPHAScreen experiments. Only compounds with dose-dependent effects on TRAF6WTStrepII-Ubc13FH (n=27) were taken for further research. For analog testing, all compounds were analyzed in ten-point titration (0.2-100 μM) in TRAF6WTStrepII-Ubc13FH ALPHAScreen experiments. In parallel, the compounds were tested in the ALPHAScreen TruHits Kit (PerkinElmer) to rule out unspecific interference with the ALPHAScreen technology.

[2] = molecular target: T2, TRAF6-Ubc13 binding in HEK293T cells (Homo sapiens, UniProt Q9Y4K3); assay: Co-immunoprecipitation of HA-TRAF6 and Ubc13 in HEK 293T cells; assay type: cell-based
T2 construct: RING-Zincfinger1 (RZ1) domain (residues 50-159) of human TRAF6 wildtype; expressed in transfected cells; host or cells: HEK 293T
T2 sequence (Q9Y4K3 50-159): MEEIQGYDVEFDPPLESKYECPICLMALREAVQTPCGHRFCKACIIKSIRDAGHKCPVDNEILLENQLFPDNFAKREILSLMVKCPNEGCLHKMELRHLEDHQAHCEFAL
Protocol: To study the interaction of TRAF6 and Ubc13 in cells, 1×10^6 293T cells were seeded and after 18 hours cells were transfected with 1 μg pEF-HA empty or pEF-HA-TRAF6 RZ1 plasmid using the X-tremeGENE HP DNA transfection reagent (Roche). 6 hours upon transfection, cells were treated with compound or DMSO. After 42 hours further incubation, cells were harvested in Co-IP lysis buffer and HA-TRAF6 was immunoprecipitated with anti-HA affinity matrix (Roche). Binding of Ubc13 to TRAF6 was examined in Western Blot analysis.

| Structure (SMILES) | IC50 [1] [µM] | interaction of endogenous Ubc13 with HA-tagged TRAF6 (co-immunoprecipitation) [2] | also measured |
| --- | --- | --- | --- |
| Cc1nn(-c2ccc3nnc(C(F)(F)F)n3n2)c(C)c1CCC(=O)N1CCN(Cc2cccc(C#N)c2C)CC1 [Example 186] | ≤ 10 | – | – |
| Cc1nn(-c2ccc3nnc(C(F)(F)F)n3n2)c(C)c1CCC(=O)N1CCN(Cc2cccc(C#N)c2Cl)CC1 [Example 187] | ≤ 10 | – | – |
| Cc1nn(-c2ccc3nnc(C)n3n2)c(C)c1CCC(=O)N1CCN(Cc2ccc(C#N)cc2Cl)CC1 [Example 188] | ≤ 30 | – | – |
| Cc1nn(-c2ccc3nnc(C(F)(F)F)n3n2)c(C)c1CCC(=O)N1CCN(Cc2ccc(C#N)cc2Cl)CC1 [Example 189] | ≤ 30 | – | – |
| Cc1nn(-c2ccc3nnc(C(F)(F)F)n3n2)c(C)c1CCC(=O)N1CCN(Cc2ccc(C#N)cc2F)CC1 [Example 190] | ≤ 3 | – | – |
| Cc1nn(-c2ccc3nnc(C)n3n2)c(C)c1CCC(=O)N1CCN(Cc2cc(C#N)ccc2Cl)CC1 [Example 191] | ≤ 10 | – | – |
| Cc1nn(-c2ccc3nnc(C)n3n2)c(C)c1CCC(=O)N1CCN(c2ccccc2)CC1 [Example C25, 3-(3,5-dimethyl-1-(3-methyl-[1,2,4]triazolo[4,3-b]pyridazin-6-yl)-1H-pyrazol-4-yl)-1-(4-phenylpiperazin-1-yl)propan-1-one] | – | – | inhibition of TRAF6-Ubc13 interaction in ALPHAScreen (in words) [1]: promising hit; also recorded: best results in in-vitro and cell-based assays |
| Cc1nn(-c2ccc3nnc(C)n3n2)c(C)c1CCC(=O)N1CCN(Cc2ccccc2)CC1 [HZM06-1, 1-(4-benzylpiperazin-1-yl)-3-(3,5-dimethyl-1-(3-methyl-[1,2,4]triazolo[4,3-b]pyridazin-6-yl)-1H-pyrazol-4-yl)propan-1-one] | – | also active in cells | – |
| COc1cccc(CN2CCN(C(=O)CCc3c(C)nn(-c4ccc5nnc(C)n5n4)c3C)CC2)c1 [HZM06-2, 1-(4-(3-methoxybenzyl)piperazin-1-yl)-3-(3,5-dimethyl-1-(3-methyl-[1,2,4]triazolo[4,3-b]pyridazin-6-yl)-1H-pyrazol-4-yl)propan-1-one] | – | also active in cells | – |
| Cc1nn(-c2ccc3nnc(C)n3n2)c(C)c1CCC(=O)N1CCN(Cc2ccc(F)cc2)CC1 [HZM06-3, 1-(4-(4-fluorobenzyl)piperazin-1-yl)-3-(3,5-dimethyl-1-(3-methyl-[1,2,4]triazolo[4,3-b]pyridazin-6-yl)-1H-pyrazol-4-yl)propan-1-one] | – | also active in cells | – |
| Cc1nn(-c2ccc3nnc(C)n3n2)c(C)c1CCC(=O)N1CCC(Cc2ccccc2)C1 (stereo not drawn) [HZM06-4, 1-(3-benzylpyrrolidin-1-yl)-3-(3,5-dimethyl-1-(3-methyl-[1,2,4]triazolo[4,3-b]pyridazin-6-yl)-1H-pyrazol-4-yl)propan-1-one] | – | also active in cells; also recorded: most active analogs | inhibition of TRAF6-Ubc13 interaction in ALPHAScreen (in words) [1]: most prominent effect; interaction of endogenous Ubc13 with HA-tagged TRAF6 (co-immunoprecipitation) ([2]; listed as HZM06-04): demonstrated inhibition of TRAF6-Ubc13 binding |
| Cc1nn(-c2ccc3nnc(C)n3n2)c(C)c1CCC(=O)N1CCC(c2ccccc2)CC1 [HZM06-6, 3-(3,5-dimethyl-1-(3-methyl-[1,2,4]triazolo[4,3-b]pyridazin-6-yl)-1H-pyrazol-4-yl)-1-(4-phenylpiperidin-1-yl)propan-1-one] | – | also active in cells | – |
| Cc1nn(-c2ccc3nnc(C)n3n2)c(C)c1CCC(=O)N1CCC(c2ccccn2)CC1 [HZM06-7, 3-(3,5-dimethyl-1-(3-methyl-[1,2,4]triazolo[4,3-b]pyridazin-6-yl)-1H-pyrazol-4-yl)-1-(4-(pyridin-2-yl)piperidin-1-yl)propan-1-one] | – | also active in cells; also recorded: most active analogs | interaction of endogenous Ubc13 with HA-tagged TRAF6 (co-immunoprecipitation) ([2]; listed as HZM06-07): demonstrated inhibition of TRAF6-Ubc13 binding |
| COc1cccc(CC2CCN(C(=O)CCc3c(C)nn(-c4ccc5nnc(C)n5n4)c3C)CC2)c1 [HZM06-8, 1-(4-(3-methoxybenzyl)piperidin-1-yl)-3-(3,5-dimethyl-1-(3-methyl-[1,2,4]triazolo[4,3-b]pyridazin-6-yl)-1H-pyrazol-4-yl)propan-1-one] | – | also active in cells; also recorded: most active analogs | interaction of endogenous Ubc13 with HA-tagged TRAF6 (co-immunoprecipitation) ([2]; listed as HZM06-08): demonstrated inhibition of TRAF6-Ubc13 binding |
| Cc1nn(-c2ccc3nnc(C)n3n2)c(C)c1CCC(=O)N1CCC(Cc2ccc(F)cc2)CC1 [HZM06-9, 1-(4-(4-fluorobenzyl)piperidin-1-yl)-3-(3,5-dimethyl-1-(3-methyl-[1,2,4]triazolo[4,3-b]pyridazin-6-yl)-1H-pyrazol-4-yl)propan-1-one] | – | also active in cells; also recorded: most active analogs | interaction of endogenous Ubc13 with HA-tagged TRAF6 (co-immunoprecipitation) ([2]; listed as HZM06-09): demonstrated inhibition of TRAF6-Ubc13 binding |
| Cc1nn(-c2ccc3nnc(C)n3n2)c(C)c1CCC(=O)N1CCC(Cc2ccccn2)CC1 [HZM06-10, 3-(3,5-dimethyl-1-(3-methyl-[1,2,4]triazolo[4,3-b]pyridazin-6-yl)-1H-pyrazol-4-yl)-1-(4-((pyridin-2-yl)methyl)piperidin-1-yl)propan-1-one] | – | also active in cells | – |
